# How the values were obtained:
# [1] = 10 mg/kg PO, relative to 8b
# BLK = BLK (Homo sapiens, UniProt P51451); details: 1 μM; Run 1, Run 2
# Sequence of BLK (P51451 whole entry): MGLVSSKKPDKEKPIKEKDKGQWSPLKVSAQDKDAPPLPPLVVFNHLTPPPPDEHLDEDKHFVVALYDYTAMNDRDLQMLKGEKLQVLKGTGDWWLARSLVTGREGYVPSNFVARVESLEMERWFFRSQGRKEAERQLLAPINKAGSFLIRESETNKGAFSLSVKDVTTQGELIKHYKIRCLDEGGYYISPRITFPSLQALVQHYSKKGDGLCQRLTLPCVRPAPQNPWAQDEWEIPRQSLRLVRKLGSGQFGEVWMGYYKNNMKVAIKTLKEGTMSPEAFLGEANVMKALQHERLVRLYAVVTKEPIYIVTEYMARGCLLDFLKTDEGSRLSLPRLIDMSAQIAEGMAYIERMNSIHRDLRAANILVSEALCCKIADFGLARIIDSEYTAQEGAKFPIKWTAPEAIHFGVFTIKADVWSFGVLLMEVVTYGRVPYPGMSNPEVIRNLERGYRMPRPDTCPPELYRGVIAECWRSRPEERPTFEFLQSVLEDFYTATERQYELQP
smiles,measurement,setting,value
"COc1cc(-c2cncc(-c3ccc(N4CCN(C)CC4)cc3)c2C)cc(F)c1C(N)=O [Compound 26a, 2-Fluoro-6-methoxy-4-(4-methyl-5-(4-(4-methylpiperazin-1-yl)phenyl)pyridin-3-yl)benzamide]",fold increase in AUCinf,[1],> 13 fold
same,fold increase in Cmax,[1],greater than 17 fold
same,% enzyme activity,BLK,95.94%
"COc1cc(-c2cncc(-c3ccc(N4C[C@@H](C)N(C)[C@@H](C)C4)cc3)c2C)cc(F)c1C(N)=O [Compound 26c, 2-Fluoro-6-methoxy-4-(4-methyl-5-(4-((3R,5S)-3,4,5-trimethylpiperazin-1-yl)phenyl)pyridin-3-yl)benzamide]",IC50,DLA ALK5,> 5000 nM
same,IC50,NanoBRET ALK2,100 nM
